# Laboratory results taken from US20230113539A1, “Traditional Chinese medicine for dispersing lung qi and detoxicating” (priority 2020, published 2023).
# Where two headings read alike, the source gives them in different places.
# How the values were obtained:
# [1] = tested on: peripheral blood T lymphocyte subset and B lymphocyte; assay: Flow cytometry of peripheral blood T lymphocyte subset and B lymphocyte proportion, same mouse model; format: in vivo, BALB/c mice
# [2] = tested on: human coronavirus (HCoV-229E); format: in vivo
# [3] = tested on: HCoV-229E nucleic acid; assay: Nucleic acid detection (viral load) in lung tissue (RT-PCR), same mouse model; format: in vivo, BALB/c mice
# [4] = tested on: GAS, MTL in mouse serum; assay: Gastrin (GAS) and motilin (MTL) in mouse serum (ELISA), same mouse model; format: in vivo, BALB/c mice
# Source text: (§1) 90 Balb/c mice are taken, SPF-grade, half male and half female, and the body weight is 10-12 g. They are randomly divided into a normal control group, a 229E infection group, a cold-damp control group, a disease-syndrome combination model group of epidemic viruses attacking lungs in mice (hereinafter referred to as an epidemic virus attacking lung model group), a chloroquine phosphate positive drug group, and an interferon α2b positive drug group, and high, medium and low dosage groups of the traditional Chinese medicine granules of the present invention, there are 10 mice in each group. Except for the normal control group and the 229E infection group, the other mice are continuously placed in an artificial climate box with a relative humidity of 90±3%, no wind, and a temperature of 4±2° C. every day, and are taken out after 4 hours of stimulation for 7 consecutive days.
# (§2) Except for the normal control group and the cold-damp control group, the other mice are infected with 100 TCID50HCOV-229E virus droplets nasally at 50 μL/mice after mild anesthesia with ether on the 5-th and 6-th days of cold-damp stimulation. The administration of each administration group starts on the day of the first infection, and each dosage group of the traditional Chinese medicine granules of the present invention and the chloroquine phosphate positive drug group are administered by gavage at 0.2 ml/10 g; the normal control group, the cold-damp control group, the 229E infection group, the epidemic virus attacking lung model group are given with normal saline under the same conditions; the interferon α2b positive drug group is inhaled with the original drug solution by atomization, and each time is 20 min. It is administered once a day for 3 consecutive days. On the 4-th day of the infection, autopsy is performed after being weighed, and the following indicators are observed and detected.
# (§3) 2.4.4 Detection of Gastrin (GAS), Motilin (MTL) in Mouse Serum and Inflammatory Factor in Lung Tissue (ELISA Method)
# After dissection, mouse […] is placed at a room temperature for 30 min, and centrifuged at 3000×g for 10 min, and a supernatant is absorbed into a new eppendorf (ep) tube and stored at −20° C. During the detection, it is operated according to kit instructions, and a microplate reader detects each index at 450 nm of the absorbance.
# [5] = tested on: inflammatory factors IL-6, IL-10, TNF-α, INF-γ in lung tissue; assay: Inflammatory factor content in lung tissue (ELISA), same mouse model; format: in vivo, BALB/c mice
# Source text: as §1, §2, §3
# Lung tissue homogenate sample: after weighing the lung tissue from the mouse, the mouse lung tissue is collected and stored at […]. After weighing 50 mg of the lung tissue and adding 500 μL of normal saline, the tissue is homogenized with an ultrasonic cell disruptor, and centrifuged at […] at 1000 xg for 10 minutes with a lower-temperature high-speed centrifuge. After the supernatant is absorbed, it is separately packaged, and stored in the −80° C. refrigerator for later use. Repeated freezing and thawing is avoided. During the detection, it is operated according to the kit instructions, and the microplate reader detects each index at 450 nm of the absorbance.
# [6] = chloroquine phosphate Id: 0.18 g/kg/d, 2~3 d: 0.09 g/kg/d
# [7] = chloroquine phosphate Id: 0.18 g/kg/d, 2~3: 0.09 g/kg/d
# [8] = interferon α2b 300 million IU, 20 min
compound,measurement,setting,value
CCN(CC)CCCC(C)Nc1ccnc2cc(Cl)ccc12 (centres unmarked) [Chloroquine phosphate],CD4+/CD8+ (peripheral blood),[1]; [6],1.65 ± 0.23
same,Percentage of immune cells in peripheral blood B cell,[1]; [6],15.72 ± 2.24%
same,Percentage of immune cells in peripheral blood CD4+T cell,[1]; [6],32.47 ± 4.65%
same,Percentage of immune cells in peripheral blood CD8+T cell,[1]; [6],20.03 ± 3.68 %
same,Inhibition rate % (of lung index),"[2]; chloroquine phosphate Id: 0.18 g/kg/d, 2-3: 0.09 g/kg/d",9.82%
same,Lung index (Lung weight/100 g body weight),"[2]; chloroquine phosphate Id: 0.18 g/kg/d, 2-3: 0.09 g/kg/d, gavage",0.85 ± 0.11
same,Viral load (lung tissue),[3]; [6],56027.66 ± 31638.92
same,Factor content in serum GAS,[4]; [7],8.75 ± 1.41 pg/mL
same,Factor content in serum MTL,[4]; [7],105.69 ± 16.85 pg/mL
same,Inflammatory factor content in lung tissue IL-6,[5]; [6],149.98 ± 29.37 pg/mL
same,Inflammatory factor content in lung tissue IL-10,[5]; [6],52.54 ± 29.40 pg/mL
same,Inflammatory factor content in lung tissue INF-γ,[5]; [6],2.77 ± 3.48 pg/mL
same,Inflammatory factor content in lung tissue TNF-α,[5]; [6],38.33 ± 9.62 pg/mL
Interferon α2b,CD4+/CD8+ (peripheral blood),[1]; [8],1.92 ± 0.63
same,Percentage of immune cells in peripheral blood CD4+T cell,[1]; [8],35.17 ± 4.24%
same,Percentage of immune cells in peripheral blood CD8+T cell,[1]; [8],19.68 ± 4.53 %
same,Percentage of immune cells in peripheral blood B cell,"[1]; interferon α2b, 20 min",6.40 ± 0.98%
same,Inhibition rate % (of lung index),"[2]; interferon α2b 3 million IU, 20 min",40.38%
same,Lung index (Lung weight/100 g body weight),"[2]; interferon α2b 3 million IU, 20 min, atomization inhalation",0.79 ± 0.11
same,Viral load (lung tissue),[3]; [8],63758.38 ± 17530.19
same,Factor content in serum GAS,[4]; [8],8.94 ± 1.07 pg/mL
same,Factor content in serum MTL,[4]; [8],115.43 ± 7.90 pg/mL
same,Inflammatory factor content in lung tissue TNF-α,[5]; [8],33.86 ± 8.72 pg/mL
same,Inflammatory factor content in lung tissue IL-6,"[5]; interferon α2b, 20 min",199.07 ± 38.37 pg/mL
same,Inflammatory factor content in lung tissue IL-10,"[5]; interferon α2b, 20 min",102.25 ± 58.14 pg/mL
same,Inflammatory factor content in lung tissue INF-γ,"[5]; interferon α2b, 20 min",4.20 ± 3.39 pg/mL
